The source made the active and inactive calls. The calls are words filed in the database; no cut-off is given here.
What was measured:
[1] = Binding affinity to avidin at 80 uM by UV-vis spectroscopy
[2] = Binding affinity to avidin by UV-vis spectroscopy
[3] = Binding affinity to avidin at 1.6 mM by UV-vis spectroscopy

| Structure (SMILES) | Activity [1] | further results |
| --- | --- | --- |
| CN(C)CC(=O)OCCCCNC(=O)CCCCCNC(=O)CCCC[C@@H]1SC[C@@H]2NC(=O)N[C@@H]21 | Active | – |
| O=C(O)CCCC[C@@H]1SC[C@@H]2NC(=O)N[C@@H]21 | – | Ka [2]: 1e+15 M⁻¹ |
| CN(C)CC(=O)OCCCCCCNC(=O)CCCCCNC(=O)CCCC[C@@H]1SC[C@@H]2NC(=O)N[C@@H]21 | Active | – |
| CN(C)CC(=O)OCCCCCCCCNC(=O)CCCCCNC(=O)CCCC[C@@H]1SC[C@@H]2NC(=O)N[C@@H]21 | Active | – |
| CN(C)CC(=O)OCCCCCNC(=O)CCCCCNC(=O)CCCC[C@@H]1SC[C@@H]2NC(=O)N[C@@H]21 | Active | – |
| CN(C)CC(=O)OCCCCCCCCCCNC(=O)CCCCCNC(=O)CCCC[C@@H]1SC[C@@H]2NC(=O)N[C@@H]21 | Active | – |
| CN(C)S(=O)(=O)c1ccc(NCCN)c2nonc12 | – | Activity [2]: Active |
| NCc1ccc(Br)cc1 | – | Activity [2]: Active |
| NCCNC(=O)COc1cc(S(=O)(=O)O)c2ccc3c(S(=O)(=O)O)cc(S(=O)(=O)O)c4ccc1c2c43 | – | Activity [3]: Active |
| COc1nc(Cl)nc(OC)n1 | – | Activity [3]: Active |

From ChEMBL document CHEMBL1629502, “Labeling study of avidin by modular method for affinity labeling (MoAL)” (Bioorg Med Chem Lett, 2010)
